# Reference: PMC10796436, “Peptidyl nitroalkene inhibitors of main protease rationalized by computational and crystallographic investigations as antivirals against SARS-CoV-2” (Communications Chemistry, 2024)
# “And” between values parts separate entries of the source, which are not always exact repeats. Identical values can stand only once. Like-named read-outs stand apart in the source and are kept apart here.
# Legend:
# DNMT2 = target: T1, DNMT2 (Homo sapiens, UniProt O14717); experiment: DNMT2 MST-displacement assay; assay type: binding; details: 100 μM
# T1 sequence (O14717 1-391): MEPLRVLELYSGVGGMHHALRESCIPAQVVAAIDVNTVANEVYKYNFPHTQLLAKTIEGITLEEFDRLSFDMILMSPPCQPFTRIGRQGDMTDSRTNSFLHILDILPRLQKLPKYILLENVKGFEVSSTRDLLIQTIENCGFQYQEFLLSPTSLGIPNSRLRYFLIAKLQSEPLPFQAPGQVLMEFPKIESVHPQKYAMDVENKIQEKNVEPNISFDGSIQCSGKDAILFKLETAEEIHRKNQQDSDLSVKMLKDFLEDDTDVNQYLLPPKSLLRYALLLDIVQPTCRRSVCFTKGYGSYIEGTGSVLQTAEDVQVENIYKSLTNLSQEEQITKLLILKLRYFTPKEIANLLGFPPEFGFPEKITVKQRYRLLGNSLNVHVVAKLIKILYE
# Procedure: DNMT2 MST-Displacement Assay. Assay was conducted according to literature 59. The average of quadruple measurements is depicted for two independent measurements each. The positive control was measured without DNMT2 to detect totally unbound FTAD, additionally Sinefungin (SFG), a literature described DNMT2 inhibitor, was used as a second positive control. SFG and FGA146 concentrations in this assay were 100 µM each.
# Figure 26. Microscale Thermophoresis displacement experiment against DNMT2.
# Other potential off-targets. A search in ChEMBL database for the term “nitroalkene” gave the following papers (excluded 2 synthesis papers using nitroalkenes as reactants) - https://doi.org/10.1021/acsmedchemlett.6b00276: Nitroalkenes against rhodesain and cruzain - https://doi.org/10.1021/jm900326c: Nitroalkene fatty acids against PPARγ - https://doi.org/10.1016/j.ejmech.2012.08.013: Nitroalkene as head group against minor groove binders (anti-infective)
# Results one and three are irrelevant due to different organisms as targets. Restult 2 is unlikely to be important, as fatty acid structure deviates from peptidic structure of inhibitors under investigation […]
# Huh-7-ACE2 cells = details: 24h
# [1] = logP determination by HPLC; assay type: physicochemical; details: HPLC retention time
# Procedure: experimental logP was determined. After unsuccessful evaluation by a classical extraction method
# for determination, an HPLC-based estimation of hydrophobicity by retention time was utilized.
# Following a publication60, a set of 9 compounds was chosen for preparing a calibration curve of
# hydrophobicity indices and logPs.
# λ = 254 nm, n = 1). Calibration of hydrophobicity was performed with a mixture of thiourea (Merck
# Fisher Scientific, A12727.AP), Indole (Sigma Aldrich, W259306), Butyrophenone (Merck
# 1 mg/mL each in 50:50 [50 mM NH4OAc buffer pH 7.2/ACN]60 (n = 1). Analysis was performed
# was used for elution with a binary pump using [50 mM NH4OAc buffer pH 7.2/ACN] (1 mL/min):
# For calculation of unknown logP with this method, the following equation is used:
# Signals at 6 and >14 min are due to impurities from
# column that are detected in all measurements and are therefore not taken into account.
# M^pro = M^pro (Severe acute respiratory syndrome coronavirus 2, UniProt P0DTD1); assay type: biochemical; details: for Fluorescence reading (progress curve): triplicate wells
# Procedure: Buffer: 20 mM Tris, 0.1 mM EDTA, 1 mM DTT, 200 mM NaCl pH = 7.5. For the dilution assay Nirmatrelvir[21] was used as a reversible control and LM188[54] as an irreversible control (Fig. 10).
# The incubation was done at RT for 30 min in assay buffer. DMSO was used as a control. After incubation the Enzyme/Inhibitor (or DMSO) mixtures were diluted 100-fold in assay buffer.
# The preincubation was done in assay buffer (20 mM Tris, 0.1 mM EDTA, 1 mM DTT, 200 mM NaCl, pH = 7.5), at RT for 30 min. After incubation the mixtures were diluted […]
# proteolytic activity of the enzyme was measured as described for the enzymatic assays using the […]
# activity was measured over 1 h.
# Inhibition assay58. Trypsin: Enzyme: bovine trypsin purchased from Sigma-Aldrich (St. Louis, […]
# Substrate: Cbz-FR-AMC purchased from Bachem (Bubendorf, Switzerland), [Substrate]: 40 µM […]
# The activity against bovine trypsin was tested at 20 µM inhibitor concentration. […]
# bovine trypsin = target: T2, bovine trypsin (Bos taurus, UniProt P00760); assay type: biochemical; details: 20 μM
# T2 construct: purchased Sigma-Aldrich
# T2 sequence (P00760 24-246): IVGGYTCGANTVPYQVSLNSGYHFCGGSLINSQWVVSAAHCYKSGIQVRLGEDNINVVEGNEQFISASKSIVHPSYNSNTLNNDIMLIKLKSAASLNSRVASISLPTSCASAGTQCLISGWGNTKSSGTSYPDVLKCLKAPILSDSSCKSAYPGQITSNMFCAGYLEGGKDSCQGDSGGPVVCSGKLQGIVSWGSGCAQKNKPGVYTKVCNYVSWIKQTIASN
smiles,measurement,setting,value
COc1cccc2[nH]c(C(=O)N[C@@H](CC(C)C)C(=O)N[C@H](/C=C/[N+](=O)[O-])C[C@@H]3CCNC3=O)cc12 [FGA146],displacement of FTAD from DNMT2,DNMT2,non-binder
same,CC50,Huh-7-ACE2 cells,> 100 µM
same,logPexp,[1],2.0
same,Fluorescence reading (progress curve),M^pro; Time 180.071 s,702 and 681 and 686
same,Fluorescence reading (progress curve),M^pro; Time 210.081 s,743 and 723 and 735
same,Fluorescence reading (progress curve),M^pro; Time 240.095 s,788 and 769 and 779
same,Fluorescence reading (progress curve),M^pro; Time 270.113 s,832 and 815 and 822
same,Fluorescence reading (progress curve),M^pro; Time 300.118 s,871 and 859 and 876
same,Fluorescence reading (progress curve),M^pro; Time 330.126 s,913 and 895 and 906
same,Fluorescence reading (progress curve),M^pro; Time 360.134 s,943 and 930 and 957
same,Fluorescence reading (progress curve),M^pro; Time 390.141 s,989 and 974 and 988
same,Fluorescence reading (progress curve),M^pro; Time 420.149 s,1026 and 1011 and 1031
same,Fluorescence reading (progress curve),M^pro; Time 450.157 s,1063 and 1040
same,Fluorescence reading (progress curve),M^pro; Time 2881.2 s,2210 and 2162 and 2202
same,Fluorescence reading (progress curve),M^pro; Time 2911.21 s,2205 and 2168 and 2199
same,Fluorescence reading (progress curve),M^pro; Time 2941.22 s,2214 and 2173 and 2206
same,Fluorescence reading (progress curve),M^pro; Time 2971.24 s,2207 and 2185 and 2213
same,Fluorescence reading (progress curve),M^pro; Time 3001.25 s,2222 and 2185 and 2232
same,Fluorescence reading (progress curve),M^pro; Time 3031.26 s,2246 and 2178 and 2225
same,Fluorescence reading (progress curve),M^pro; Time 3061.27 s,2233 and 2191 and 2237
same,Fluorescence reading (progress curve),M^pro; Time 3091.28 s,2243 and 2199 and 2235
same,Fluorescence reading (progress curve),M^pro; Time 3121.29 s,2244 and 2187 and 2224
same,Fluorescence reading (progress curve),M^pro; Time 3151.3 s,2247 and 2204 and 2241
same,Fluorescence reading (progress curve),M^pro; Time 3181.31 s,2224 and 2196 and 2245
same,Fluorescence reading (progress curve),M^pro; Time 3211.32 s,2250 and 2188 and 2275
same,Fluorescence reading (progress curve),M^pro; Time 3241.33 s,2234 and 2200
same,Fluorescence reading (progress curve),M^pro; Time 3271.34 s,2236 and 2195 and 2245
same,Fluorescence reading (progress curve),M^pro; Time 3301.35 s,2233 and 2201 and 2238
same,Fluorescence reading (progress curve),M^pro; Time 3331.36 s,2246 and 2198 and 2261
same,Fluorescence reading (progress curve),M^pro; Time 3361.37 s,2261 and 2203 and 2250
same,Fluorescence reading (progress curve),M^pro; Time 3391.39 s,2251 and 2199 and 2248
same,Fluorescence reading (progress curve),M^pro; Time 3421.39 s,2261 and 2206 and 2226
same,Fluorescence reading (progress curve),M^pro; Time 3451.41 s,2253 and 2215 and 2257
same,Fluorescence reading (progress curve),M^pro; Time 3481.42 s,2274 and 2215 and 2263
same,Fluorescence reading (progress curve),M^pro; Time 3511.43 s,2266 and 2207 and 2242
same,Fluorescence reading (progress curve),M^pro; Time 3541.44 s,2263 and 2215 and 2260
same,Fluorescence reading (progress curve),M^pro; Time 3571.45 s,2254 and 2212 and 2248
same,recovery of M^pro activity after 100-fold dilution,M^pro; preincubation 30 min,seems to recover over time
same,relative activity compared to the DMSO control,bovine trypsin,112.5±16.9%
